# According to PubChem BioAssay (NCI):
#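 Tested at 5 concentrations; 48 h exposure; 96-well plates; endpoints linearly interpolated, else capped at highest concentration. Definition used: TGI = concentration required for complete inhibition of growth.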
# Assays:
# Test in all cases: NCI-60 cell line screen, 48 h
# [1] = system: NCI-H23 lung
# [2] = system: HCC-2998 colon
# [3] = system: MCF7 breast
# [4] = system: MDA-N
# [5] = system: ACHN renal
# [6] = system: MDA-MB-435
# [7] = system: OVCAR-3 ovarian
# [8] = system: T-47D breast
# [9] = system: MALME-3M melanoma
# [10] = system: SF-295 CNS
SMILES,TGI [1] [µM],TGI [2] [µM],TGI [3] [µM],TGI [4] [µM],TGI [5] [µM],TGI [6] [µM],TGI [7] [µM],TGI [8] [µM],TGI [9] [µM],TGI [10] [µM]
O=C(C(Cl)=C(N1CCOCC1)N1CCOCC1)C(Cl)Cl,> 100,> 100,> 100,> 100,> 100,> 100,> 100,> 100,> 100,–
O=c1[nH]nc(Cc2ccccc2)n1/N=C/c1ccncc1,> 100,> 100,> 100,> 100,> 100,> 100,> 100,> 100,> 100,> 100
CCOC(=O)C1CCC(=O)N1C(=O)c1ccccc1 (configuration not stated),> 100,> 100,> 100,–,> 100,> 100,> 100,> 100,> 100,> 100
c1c2c(cc(-n3nnc4c3CCCCCC4)c1-n1nnc3c1CCCCCC3)CCCCCC2,–,29.5,–,–,20.9,–,64.8,–,–,25.3
CN(C)CCNC(=O)c1cccc2nc(-c3ccccc3)oc12,> 100,> 100,28.2,–,–,–,> 100,–,99,> 100
Cc1ccc(/C=C2\Cc3c(C)cc(C)cc3C2=O)c(C(=O)O)c1,> 100,98.6,> 100,> 100,> 100,88.1,94,> 100,> 100,> 100
O=C1CSC2=NC3=C(COC/C3=C\c3ccc(Br)cc3)C(c3ccc(Br)cc3)N12 (configuration not stated),> 100,> 100,> 100,> 100,> 100,> 100,> 100,> 100,–,> 100
Nc1nn2c(=O)c3ccccc3nc2s1,> 100,> 100,> 100,> 100,> 100,> 100,> 100,> 100,–,> 100
CCOC(=O)c1nnsc1NN,> 100,> 100,> 100,> 100,> 100,> 100,> 100,–,–,> 100
O=c1[nH]c(Nc2cccc(CO)c2)nc2nc[nH]c12,> 100,> 100,> 100,> 100,> 100,> 100,> 100,> 100,> 100,> 100
CN(C)CC1CCC(CN(C)C)C1=O (configuration not stated),12.9,32.9,1.8,3.85,11.1,> 100,7.24,3.48,3.67,32.8
C[n+]1c(-c2ccc(/C=C/C=N\NC(=O)c3ccc(C(=O)N/N=C\C=C\c4ccc(-c5cn6ccccc6[n+]5C)cc4)cc3)cc2)cn2ccccc21,> 100,> 100,> 100,> 100,> 100,> 100,> 100,> 80.2,> 100,> 100
CC(=O)OCc1c(O)c2c(c(O)c1COC(C)=O)C(=O)C=CC2=O,29,31.3,–,–,21.8,–,22.1,–,20.5,27.4
COc1ccc(N(C(=O)Nc2ccc(Cl)c(Cl)c2)C2c3cccn3C(=O)N2c2ccc(Cl)c(Cl)c2)cc1 (configuration not stated),> 100,> 100,> 100,> 100,> 100,> 100,–,–,> 100,94.8
CC(C)(C)c1cc(C(=O)/C=C/c2ccc3c(c2)OCO3)cc(C(C)(C)C)c1O,> 86.4,3.74,> 100,5.53,> 100,7.04,23,23.8,> 53.4,> 31.2
CCOC(=O)c1cn2c(n1)sc1cc(Cl)cc(Cl)c12,> 100,> 100,> 100,> 100,> 100,> 100,> 100,> 100,> 100,> 100
CO[C@]12C[C@H](CNC(=O)c3ccc[nH]3)O[C@H]1NC(=O)N2,> 100,–,> 100,–,> 100,> 100,> 100,> 100,> 100,> 100
CCCCCCCCCc1nn2c(Cc3ccccc3)nnc2s1,38.8,–,73.6,38.7,40,62,37,97.5,–,45.6
O=c1cc(-c2ccccc2)oc2c(-c3cc(Cl)cc4c(=O)cc(-c5ccccc5)oc34)cc(Cl)cc12,> 100,> 100,> 100,> 100,> 100,> 100,80.5,75.6,75.8,> 100
C=C1c2nc3ccccc3n2C=C(c2ccc(Cl)cc2)N1c1ccc(OC)cc1,22.9,28.3,31.8,45.7,13.5,30.5,25.7,–,13.3,18.5
N#Cc1c(-c2ccccc2)cc(-c2ccc(Cl)cc2)[nH]c1=S,38.2,> 100,53.1,> 100,> 100,43.1,> 100,> 100,> 100,83.7
COc1ccc(NC(=S)NC(=O)c2ccc3c(c2)Sc2ccccc2O3)c([N+](=O)[O-])c1,> 100,–,> 100,> 100,64.8,> 100,58.5,> 100,35.7,> 100
COc1cc(/C=C/C=C2\CC/C(=C\C=C\c3ccc(O)c(OC)c3)C2=O)ccc1O,> 100,> 100,> 100,> 100,> 100,> 100,> 100,> 100,> 100,> 100
